One test addresses EGFR L858R (Homo sapiens, UniProt P00533, L858R). The experiment in a line: EGFR biochemical assay (headed HTRF-based; method describes Z'-LYTE), L858R. To be noted: Table 4. The protocol:
(§1) To measure the IC50 values of compounds herein against EGFR, a Z′-LYTE assay (ThermoFisher) was used. Briefly, 2.5 μL of different concentrations of the compounds in 4% DMSO were added to 5 μL kinase/peptide mixture in each well of a 384-well plate (Corning Cat. #3676). 2.5 μL of 4× ATP solution (4× ATP, 50 mM HEPES, pH 7.5, 0.01% BRIJ-35, 10 mM MgCl2, 1 mM EGTA) were added to each well. The plate was shaken for 30 seconds, and then incubated at room temperature for 60 minutes. 5 μL of a 1:100000 dilution of Development Reagent A was added to each well. The plate was then incubated for 60 mins at room temperature. 5 μL of the stop reagent was then added. The plate was subsequently read on a fluorescence plate reader, and the emissions ratio was calculated to determine the ratio of Ser/Thr 07 phosphorylated by the reaction. Emissions Ratio═Coumarin Emission (443 nm)/Flourescein Emission (520 nm).
(§2) HTRF-based EGFR assay data are provided below in Table 4.
(In general: TR-FRET usually uses a lanthanide donor and a delayed reading to cut background.)

Test [1] addresses EGFR mutant L858R Ba/F3 cells (Homo sapiens, UniProt P00533, L858R, cells depend on it). The test can be described thus: Ba/F3 cell proliferation (Cell Titer Glo), EGFR L858R. It counts as cell-based, murine. To be noted: 72 hours, Table 6, read-out: L858R BaF3. An excerpt:
(§3) The EGFR mutant L858R Ba/F3 cells have been previously described (Zhou, W., et al. Nature 462, 2009, 1070-1074). The EGFR C797S and C775S mutations were introduced via site directed mutagenesis using the Quick Change Site-Directed Mutagenesis kit into a vector containing EGFR L858R mutation (Stratagene; La Jolla, CA) according to the manufacturer's instructions. All constructs were confirmed by DNA sequencing. The constructs were then shuttled into the retroviral vector JP1540 by either using the Cre-recombination system (Agilent Technologies, Santa Clara, CA) or the In-fusion HD Cloning kit (Takara Bio USA, Inc.; Mountain view, CA). Ba/F3 cells were then infected with retrovirus per standard protocols, as described previously (Zhou, et al, Nature 2009). Stable clones were obtained by selection in puromycin (2 μg/ml). All BaF/3 mutant cells were maintained in RPMI 1640 (Cellgro; Mediatech Inc., Herndon, CA) supplemented with 10% FBS, 100 units/mL penicillin, 100 units/mL streptomycin.
(§4) Growth and inhibition of growth was assessed by the Cell Titer Glo assay (Promega, Madison, WI) and was performed according to the manufacturer's instructions. The Cell Titer Glo assay is a luminescence-based method used to determine the number of viable cells based on quantitation of the ATP present, which is directly proportional to the amount of metabolically active cells present. Ba/F3 cells of different EGFR genotypes were exposed to compounds for 72 hours and the number of cells used per experiment was determined empirically as has been previously established (Zhou, et al., Nature 2009). All experimental points were set up in triplicates in 384-well plates. […] The curves were fitted using a non-linear regression model with a sigmoidal dose response.
(§5) Ba/F3 cells assay data are provided below in Table 5 and Table 6. For inhibitory activity against EGFR mutants, the following designations are used: <0.1 μM=A, 0.1 μM˜0.5 μM=B, 0.5 μM˜2.5 μM=C, ≥2.5 μM=D
On the technique in general: Cellular ATP, detected with luciferase, serves as a proxy for viable cell number.

For another test, the target named is EGFR L858R/T790M (Homo sapiens, UniProt P00533, L858R/T790M). The experiment in a line: EGFR biochemical assay (headed HTRF-based; method describes Z'-LYTE), L858R/T790M. To be noted: Table 4. On the procedure:
as §1, §2

Test [2] concerns the target EGFR L858R/C797S Ba/F3 cells (Homo sapiens, UniProt P00533, C797S/L858R, cells depend on it). The experiment in a line: Ba/F3 cell proliferation (Cell Titer Glo), EGFR L858R/C797S. In kind it is cell-based, murine. To be noted: 72 hours, Table 6.
Description: as §3, §4, §5

Usually IC50 stands for the concentration that gives 50% inhibition. A high value points to weaker potency.

Chain of EGFR mutant L858R Ba/F3 cells (P00533 whole entry L858R, the tested form may be a part): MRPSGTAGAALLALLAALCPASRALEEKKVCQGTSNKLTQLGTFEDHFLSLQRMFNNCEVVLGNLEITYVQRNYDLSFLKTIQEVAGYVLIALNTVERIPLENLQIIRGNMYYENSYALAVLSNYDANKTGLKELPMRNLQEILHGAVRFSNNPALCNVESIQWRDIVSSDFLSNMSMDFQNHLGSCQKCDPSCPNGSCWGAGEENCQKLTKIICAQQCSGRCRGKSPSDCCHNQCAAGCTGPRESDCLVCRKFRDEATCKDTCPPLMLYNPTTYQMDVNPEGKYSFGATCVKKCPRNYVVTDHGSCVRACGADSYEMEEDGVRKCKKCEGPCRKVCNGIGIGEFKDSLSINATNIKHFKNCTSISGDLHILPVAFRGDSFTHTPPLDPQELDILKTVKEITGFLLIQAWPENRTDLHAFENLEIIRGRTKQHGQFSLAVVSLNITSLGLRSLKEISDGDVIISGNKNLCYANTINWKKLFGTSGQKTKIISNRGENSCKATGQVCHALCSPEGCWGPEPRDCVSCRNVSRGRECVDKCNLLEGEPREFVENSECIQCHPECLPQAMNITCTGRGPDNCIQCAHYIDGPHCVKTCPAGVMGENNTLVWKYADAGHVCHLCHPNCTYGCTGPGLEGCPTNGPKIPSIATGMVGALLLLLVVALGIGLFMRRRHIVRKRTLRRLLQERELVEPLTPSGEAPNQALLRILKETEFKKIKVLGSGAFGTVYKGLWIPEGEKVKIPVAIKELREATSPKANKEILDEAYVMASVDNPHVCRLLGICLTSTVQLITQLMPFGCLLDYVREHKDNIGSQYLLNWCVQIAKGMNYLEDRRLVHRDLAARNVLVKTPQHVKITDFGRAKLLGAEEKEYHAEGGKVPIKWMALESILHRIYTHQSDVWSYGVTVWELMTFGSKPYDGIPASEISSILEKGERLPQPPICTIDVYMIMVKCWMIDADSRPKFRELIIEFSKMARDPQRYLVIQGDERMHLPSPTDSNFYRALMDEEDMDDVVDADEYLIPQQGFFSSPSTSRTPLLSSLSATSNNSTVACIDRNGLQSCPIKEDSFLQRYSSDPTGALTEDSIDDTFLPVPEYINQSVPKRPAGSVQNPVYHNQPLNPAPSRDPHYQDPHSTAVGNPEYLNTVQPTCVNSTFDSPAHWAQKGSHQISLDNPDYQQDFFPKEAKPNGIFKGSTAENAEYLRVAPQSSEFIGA
Chain of EGFR L858R/C797S Ba/F3 cells (P00533 whole entry C797S/L858R): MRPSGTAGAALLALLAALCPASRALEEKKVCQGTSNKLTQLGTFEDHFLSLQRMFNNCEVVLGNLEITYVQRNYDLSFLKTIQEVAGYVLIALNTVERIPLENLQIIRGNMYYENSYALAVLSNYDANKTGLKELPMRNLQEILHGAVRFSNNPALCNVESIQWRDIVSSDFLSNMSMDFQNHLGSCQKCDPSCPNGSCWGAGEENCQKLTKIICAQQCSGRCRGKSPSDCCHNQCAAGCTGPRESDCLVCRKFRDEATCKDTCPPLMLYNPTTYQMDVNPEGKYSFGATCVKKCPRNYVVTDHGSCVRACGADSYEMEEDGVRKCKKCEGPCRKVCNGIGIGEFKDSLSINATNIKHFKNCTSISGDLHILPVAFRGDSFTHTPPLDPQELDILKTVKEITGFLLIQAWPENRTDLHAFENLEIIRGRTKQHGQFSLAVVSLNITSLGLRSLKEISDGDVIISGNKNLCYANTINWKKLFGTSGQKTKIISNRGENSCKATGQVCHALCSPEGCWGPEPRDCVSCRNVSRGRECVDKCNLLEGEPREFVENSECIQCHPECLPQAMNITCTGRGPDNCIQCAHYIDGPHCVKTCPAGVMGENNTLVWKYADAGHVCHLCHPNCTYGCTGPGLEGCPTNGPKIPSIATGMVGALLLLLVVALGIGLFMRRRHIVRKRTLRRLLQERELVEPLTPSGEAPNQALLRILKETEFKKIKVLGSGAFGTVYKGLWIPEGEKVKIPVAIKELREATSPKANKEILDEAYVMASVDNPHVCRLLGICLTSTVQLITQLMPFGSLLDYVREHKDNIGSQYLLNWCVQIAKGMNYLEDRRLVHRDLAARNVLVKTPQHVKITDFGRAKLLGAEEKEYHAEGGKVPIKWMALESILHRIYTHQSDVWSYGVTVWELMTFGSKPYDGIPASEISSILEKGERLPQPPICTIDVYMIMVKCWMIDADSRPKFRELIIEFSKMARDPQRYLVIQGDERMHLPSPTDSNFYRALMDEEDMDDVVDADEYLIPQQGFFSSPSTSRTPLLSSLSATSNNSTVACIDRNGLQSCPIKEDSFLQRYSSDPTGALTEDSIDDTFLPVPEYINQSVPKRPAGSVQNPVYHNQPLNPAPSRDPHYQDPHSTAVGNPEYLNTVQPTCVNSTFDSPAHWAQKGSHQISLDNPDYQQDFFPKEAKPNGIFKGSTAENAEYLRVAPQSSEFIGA
Chain of EGFR L858R (P00533 25-1210 L858R): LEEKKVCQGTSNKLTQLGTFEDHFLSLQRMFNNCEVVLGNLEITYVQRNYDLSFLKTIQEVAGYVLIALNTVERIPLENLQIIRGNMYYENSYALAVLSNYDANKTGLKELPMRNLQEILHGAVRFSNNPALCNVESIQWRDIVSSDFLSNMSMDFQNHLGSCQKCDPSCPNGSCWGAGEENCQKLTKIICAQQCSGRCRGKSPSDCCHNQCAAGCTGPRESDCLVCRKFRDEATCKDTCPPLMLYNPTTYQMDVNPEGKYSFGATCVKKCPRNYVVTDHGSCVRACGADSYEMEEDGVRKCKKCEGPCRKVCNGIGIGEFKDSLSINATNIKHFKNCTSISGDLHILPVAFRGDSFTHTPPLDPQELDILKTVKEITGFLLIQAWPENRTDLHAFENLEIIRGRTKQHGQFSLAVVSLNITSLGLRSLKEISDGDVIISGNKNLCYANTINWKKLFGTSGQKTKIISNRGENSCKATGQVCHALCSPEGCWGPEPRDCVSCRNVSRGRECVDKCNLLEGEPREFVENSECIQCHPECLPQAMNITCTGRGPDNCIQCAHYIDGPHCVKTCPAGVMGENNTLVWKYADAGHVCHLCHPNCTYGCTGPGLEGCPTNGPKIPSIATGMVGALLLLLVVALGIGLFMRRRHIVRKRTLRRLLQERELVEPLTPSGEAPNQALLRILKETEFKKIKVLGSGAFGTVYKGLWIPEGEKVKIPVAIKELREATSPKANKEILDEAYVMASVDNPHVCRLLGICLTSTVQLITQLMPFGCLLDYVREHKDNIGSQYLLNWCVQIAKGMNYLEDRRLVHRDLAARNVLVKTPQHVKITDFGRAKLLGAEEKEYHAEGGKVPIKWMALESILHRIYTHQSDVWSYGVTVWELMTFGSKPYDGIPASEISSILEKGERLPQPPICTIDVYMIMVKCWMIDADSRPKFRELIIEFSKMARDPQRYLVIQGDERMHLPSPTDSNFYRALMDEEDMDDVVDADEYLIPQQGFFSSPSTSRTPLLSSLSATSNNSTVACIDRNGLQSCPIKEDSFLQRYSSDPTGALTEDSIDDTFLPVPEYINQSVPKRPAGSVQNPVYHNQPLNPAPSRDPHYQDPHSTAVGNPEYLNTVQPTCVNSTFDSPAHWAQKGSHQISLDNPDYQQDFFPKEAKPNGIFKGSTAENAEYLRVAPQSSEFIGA
Chain of EGFR L858R/T790M (P00533 25-1210 T790M/L858R): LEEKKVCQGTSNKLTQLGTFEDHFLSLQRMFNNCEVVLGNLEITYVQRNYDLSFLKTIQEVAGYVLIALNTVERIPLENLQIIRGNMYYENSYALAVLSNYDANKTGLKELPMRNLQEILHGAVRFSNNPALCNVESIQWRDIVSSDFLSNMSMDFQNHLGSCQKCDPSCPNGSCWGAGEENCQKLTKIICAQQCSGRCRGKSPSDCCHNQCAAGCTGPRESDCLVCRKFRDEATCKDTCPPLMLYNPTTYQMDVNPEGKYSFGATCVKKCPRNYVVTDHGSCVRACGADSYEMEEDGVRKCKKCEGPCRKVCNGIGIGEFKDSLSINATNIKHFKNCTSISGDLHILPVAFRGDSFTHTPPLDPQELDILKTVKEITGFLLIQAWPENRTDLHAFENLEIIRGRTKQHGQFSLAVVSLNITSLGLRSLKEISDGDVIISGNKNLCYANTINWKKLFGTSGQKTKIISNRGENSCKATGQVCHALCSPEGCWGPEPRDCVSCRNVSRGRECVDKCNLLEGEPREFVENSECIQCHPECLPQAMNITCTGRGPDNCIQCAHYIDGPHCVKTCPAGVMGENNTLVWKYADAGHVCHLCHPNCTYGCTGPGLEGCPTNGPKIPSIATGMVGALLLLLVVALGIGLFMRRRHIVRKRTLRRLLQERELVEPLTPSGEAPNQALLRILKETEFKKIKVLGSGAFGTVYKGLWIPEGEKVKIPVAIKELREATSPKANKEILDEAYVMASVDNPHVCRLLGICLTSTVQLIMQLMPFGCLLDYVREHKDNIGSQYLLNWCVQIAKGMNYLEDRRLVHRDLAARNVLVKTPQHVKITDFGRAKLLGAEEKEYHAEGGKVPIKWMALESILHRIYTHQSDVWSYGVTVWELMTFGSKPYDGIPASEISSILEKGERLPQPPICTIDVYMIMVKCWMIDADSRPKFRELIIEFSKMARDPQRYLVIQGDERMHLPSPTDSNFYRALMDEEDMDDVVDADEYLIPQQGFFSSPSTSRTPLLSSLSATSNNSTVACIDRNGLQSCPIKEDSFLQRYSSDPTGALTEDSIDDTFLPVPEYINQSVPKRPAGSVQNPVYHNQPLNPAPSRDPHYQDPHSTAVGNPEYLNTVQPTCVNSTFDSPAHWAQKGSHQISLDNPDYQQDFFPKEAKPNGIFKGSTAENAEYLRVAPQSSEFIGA

Take `C=CC(=O)N1CCC(N2Cc3cnc(Nc4ccc(N5CCN(C)CC5)cc4)nc3N(C)C2=O)c2cccc(OC)c21` (single isomer, unassigned) [Compound 124]: the IC50 on EGFR L858R and on EGFR L858R/T790M was > 100 nM throughout. Also, in test [1], the GI50 was ≥ 2500 nM.

On to `C=CC(=O)N1CCC(N2Cc3cnc(Nc4ccc(N5CCN(C)CC5)cc4)nc3N(C)C2=O)C2(CCC2)C1` (centres unmarked) [Compound 094], for which the GI50 in test [2] and in test [1] was ≥ 2500 nM throughout.

For `CN1CCN(c2ccc(Nc3ncc4c(n3)N(C)C(=O)N([C@H]3CCN(C(=O)/C=C/CF)c5ccccc53)C4)cc2)CC1` [Compound 095], the GI50 in test [2] and in test [1] was < 100 nM in each case.

For `CN1CCN(c2ccc(Nc3ncc4c(n3)N(C)C(=O)N([C@H]3CCN(C(=O)CC#N)c5ccccc53)C4)cc2)CC1` [Compound 096], the GI50 in test [2] and in test [1] was ≥ 2500 nM in each case.

As for `C/C=C(\F)C(=O)N1CC[C@H](N2Cc3cnc(Nc4ccc(N5CCN(C)CC5)cc4)nc3N(C)C2=O)c2ccccc21` [Compound 097], the GI50 in test [2] was 500 to 2500 nM; in test [1] it was 100 to 500 nM.

Regarding `C=C(F)C(=O)N1CC[C@H](N2Cc3cnc(Nc4ccc5c(c4)CCN(C)C5)nc3N(C)C2=O)c2ccccc21` [Compound 098], the GI50 in test [2] and in test [1] was < 100 nM throughout.

On to `C=CC(=O)N1CCC(N2Cc3cnc(Nc4ccc(N5CCN(C)CC5)cc4)nc3N(C)C2=O)c2cccc(F)c21` (centres unmarked) [Compound 099, 3-(8-fluoro-1-prop-2-enoyl-3,4-dihydro-2H-quinolin-4-yl)-1-methyl-7-[4-(4-methylpiperazin-1-yl)anilino]-4H-pyrimido[4,5-d]pyrimidin-2-one], for which the GI50 in test [2] and in test [1] was < 100 nM each time.

For the compound `C=CC(=O)N1CCC(N2Cc3cnc(Nc4ccc(N5CCN(C)CC5)cc4)nc3N(C)C2=O)c2cccc(OC)c21` (centres unmarked) [Compound 100, 3-(8-methoxy-1-prop-2-enoyl-3,4-dihydro-2H-quinolin-4-yl)-1-methyl-7-[4-(4-methylpiperazin-1-yl)anilino]-4H-pyrimido[4,5-d]pyrimidin-2-one], the GI50 in test [2] and in test [1] was < 100 nM each time.

With `C/C=C(\C#N)C(=O)N1CC[C@H](N2Cc3cnc(Nc4ccc(N5CCN(C)CC5)cc4)nc3N(C)C2=O)c2ccccc21` [Compound 101], the GI50 in test [2] and in test [1] was ≥ 2500 nM in each case.

Regarding `C=C(F)C(=O)N1CC[C@H](N2Cc3cnc(Nc4cnn(CCO)c4)nc3N(C3CCOC3)C2=O)c2ccccc21` (stereo partly drawn) [Compound 102, 3-((S)-1-(2-fluoroacryloyl)-1,2,3,4-tetrahydroquinolin-4-yl)-7-((1-(2-hydroxyethyl)-1 H-pyrazol-4-yl)amino)-1-(tetrahydrofuran-S-yl)-3,4-dihydropyrimido[4,5-d]pyrimidin-2(1H)-one], the GI50 in test [2] and in test [1] was < 100 nM in each case.

Consider `CN1C(=O)N([C@H]2CCN(C#N)c3ccccc32)Cc2cnc(Nc3cnn(CCO)c3)nc21` [Compound 103], for which the GI50 in test [2] and in test [1] was ≥ 2500 nM throughout.

On to `CN1C(=O)N([C@H]2CCN(C(=O)CC#N)c3ccccc32)Cc2cnc(Nc3cnn(CCO)c3)nc21` [Compound 104], for which the GI50 in test [2] and in test [1] was ≥ 2500 nM each time.

On to `C=CC(=O)N1CCC(N2Cc3nnc(Nc4ccc(N5CCN(C)CC5)cn4)cc3N(C)C2=O)c2ccccc21` (centres unmarked) [Compound 105], for which the GI50 in test [2] and in test [1] was ≥ 2500 nM throughout.

`CN1C(=O)N(C2CN(C#N)c3ccccc32)Cc2cnc(Nc3cnn(CCO)c3)nc21` (centres unmarked) [Compound 106, 3-[7-[[1-(2-hydroxyethyl)pyrazol-4-yl]amino]-1-methyl-2-oxo-4H-pyrimido[4,5-d]pyrimidin-S-yl]indoline-1-carbonitrile]: the GI50 in test [2] and in test [1] was ≥ 2500 nM in each case.

As to `C=CC(=O)N1c2ccccc2C(N2Cc3cnc(Nc4ccc(N5CCN(C)CC5)cc4)nc3N(C)C2=O)CC1(C)C` (centres unmarked) [Compound 107, 3-(1-acryloyl-2,2-dimethyl-1,2,3,4-tetrahydroquinolin-4-yl)-1-methyl-7-((4-(4-methylpiperazin-1-yl)phenyl)amino)-3,4-dihydropyrimido[4,5-d]pyrimidin-2(1H)-one], the GI50 in test [2] and in test [1] was ≥ 2500 nM each time.

As to `C=C(F)C(=O)N1CC(F)(F)C(N2Cc3cnc(Nc4cnn(CCO)c4)nc3N(C)C2=O)c2ccccc21` (centres unmarked) [Compound 108, 3-[3,3-difluoro-1-(2-fluoroprop-2-enoyl)-2,4-dihydroquinolin-4-yl]-7-[[1-(2-hydroxyethyl)pyrazol-4-yl]amino]-1-methyl-4H-pyrimido[4,5-d]pyrimidin-2-one], the GI50 in test [2] was ≥ 2500 nM; in test [1] it was 500 to 2500 nM.

Consider `C=C(F)C(=O)N1CC[C@H](N2Cc3cnc(Nc4ccc5c(c4)CCN(C)C5)nc3N(c3cnn(C)c3)C2=O)c2ccccc21` [Compound 109], for which the GI50 in test [2] and in test [1] was < 100 nM in each case.

In the case of `C=C(F)C(=O)N1CC[C@H](N2Cc3cnc(Nc4cnn(CCO)c4)nc3N(CC(F)F)C2=O)c2ccccc21` [Compound 110, 1-(2,2-difluoroethyl)-S-[(4S)-1-(2-fluoroprop-2-enoyl)-3,4-dihydro-2H-quinolin-4-yl]-7-[[1-(2-hydroxyethyl)pyrazol-4-yl]amino]-4H-pyrimido[4,5-d]pyrimidin-2-one], the GI50 in test [2] and in test [1] was < 100 nM in each case.

Regarding `C=C(F)C(=O)N1CC[C@H](N2Cc3cnc(Nc4cnn(CCO)c4)nc3N(c3ccccn3)C2=O)c2ccccc21` [Compound 111], the figures for the GI50 in test [2] and in test [1] were 500 to 2500 nM and 100 to 500 nM, respectively.

Regarding `C=CC(=O)N1CCC(C)(N2Cc3cnc(Nc4cnn(CCO)c4)nc3N(C)C2=O)c2ccccc21` (stereo not drawn) [Compound 112, 7-[[1-(2-hydroxyethyl)pyrazol-4-yl]amino]-1-methyl-S-(4-methyl-1-prop-2-enoyl-2,3-dihydroquinolin-4-yl)-4H-pyrimido[4,5-d]pyrimidin-2-one], the GI50 in test [2] and in test [1] was ≥ 2500 nM throughout.

Turning to `[2H]C1(N2Cc3cnc(Nc4cnn(CCO)c4)nc3N(C3CC3)C2=O)CCN(C(=O)C(=C)F)c2ccccc21` (stereo not drawn) [Compound 113, 1-cyclopropyl-S-[4-deuterio-1-(2-fluoroprop-2-enoyl)-2,3-dihydroquinolin-4-yl]-7-[[1-(2-hydroxyethyl)pyrazol-4-yl]amino]-4H-pyrimido[4,5-d]pyrimidin-2-one], the GI50 is 100 to 500 nM in test [2] and < 100 nM in test [1].

Regarding `[2H]C1(N2Cc3cnc(Nc4cnn(CCO)c4)nc3N(C)C2=O)CCN(C(=O)C=C)c2c(OC)cccc21` (centres unmarked) [Compound 129, 3-(4-deuterio-8-methoxy-1-prop-2-enoyl-2,3-dihydroquinolin-4-yl)-7-[[1-(2-hydroxyethyl)pyrazol-4-yl]amino]-1-methyl-4H-pyrimido[4,5-d]pyrimidin-2-one], the GI50 in test [2] is ≥ 2500 nM; in test [1], 500 to 2500 nM.

As to `C=CC(=O)N1CC[C@H](N2Cc3cnc(Nc4ccc5c(c4)CCN(C)C5)nc3N(CCO)C2=O)c2cccc(C)c21` [Compound 154, 1-(2-hydroxyethyl)-7-[(2-methyl-3,4-dihydro-1 H-isoquinolin-6-yl)amino]-S-[(4S)-8-methyl-1-prop-2-enoyl-3,4-dihydro-2H-quinolin-4-yl]-4H-pyrimido[4,5-d]pyrimidin-2-one], the GI50 in test [2] and in test [1] was < 100 nM each time.

The values above are taken from patent US20240352021A1 (DANA-FARBER CANCER INSTITUTE, INC., priority 2021, published 2024).
